Measured values reported in article PMC6100512, “In-Vitro Activity of Silybin and Related Flavonolignans against Leishmania infantum and L. donovani” (Molecules : A Journal of Synthetic Chemistry and Natural …, 2018).
Each block holds one compound with its values, some of them ahead of it.

What was measured:
Li promastigotes = assay: Drug combination with DhiS-A, Chou-Talalay method (CalcuSyn); assay type: cell-based, Leishmania infantum; settings: for Dose Required of Dn in combination with DhiS-A: computer-simulated; for DRI of Dn in combination with DhiS-A: fold dose reduction vs single agent
Description: Fixed-combination ratios of drugs were based on the IC50 values determined for the individual molecules. Mid-log-phase promastigotes of Li were exposed for 24 h at constant ratios of 0.01:15 (AmB:DhiS-A), 1:1 (Sb^III:DhiS-A) and 5:1 (PMM:DhiS-A). Dose–response curves of the combinations were analyzed with the Chou–Talalay method, based on the theorem of combination index (CI)-isobologram and CalcuSyn software. This method allows the evaluation of the type of interaction between two molecules according to mass action law. Results can be used to determine quantitatively the synergy (CI < 1), additive effect (CI = 1) or antagonism (CI > 1) of combinations. Moreover, the program allows the calculation of the drug reduction index (DRI): dose reduction in drug combinations to reach a given inhibition compared to the activity of the individual drugs.

Ld promastigotes = assay: Multiplication of Ld promastigotes in vitro (CellTiter-Glo, 24 h); assay type: cell-based, L. donovani; settings: Leishmania donovani; for inhibition of growth at 120 µM: compared to untreated cultures, mean ± SD, read-out: Reduction (%) of multiplication, L. donovani promastigotes
Description: (§1) Growth was estimated by the addition of CellTiter-Glo® (Promega, Madison, WI, USA) (1:1) in 96-well microtiter white plates (Costar, Corning). After 10 min incubation (light protected, room temperature), luminescence was determined with FLUOstar Omega (BMG Labtech) reader. Sensitivity of Ld was similarly performed with promastigotes exposed to 120 μM. Control cultures (medium, untreated promastigotes, promastigotes treated with 0.2 μM AmB) were included. Experiment was carried out in triplicate and results expressed as % of inhibition of untreated control. Approximate IC50 values of the flavonolignans showing the highest inhibitory activity against Li mid-log-phase promastigotes were determined using dose-response curves. […] The compound with the highest activity, DhiS-A, was assayed against Ld promastigotes using the latter dilution series and the same culture conditions as above. For comparative purposes, mid-log promastigotes of Li and Ld were exposed to established anti-Leishmania agents: AmB (0.0078 μ[…] and 1.0 μM); […]

[1] = system: intracellular amastigotes of Li BCN150; assay: Activity against intracellular amastigotes ex vivo in mouse peritoneal Mφ; assay type: cell-based, Leishmania infantum; settings: 24 h
Description: Antiproliferative activity of flavonolignans against intracellular amastigotes was determined ex vivo using mouse peritoneal Mφ. Infections were carried out following the method and modifications described by us. Briefly, Mφ were seeded onto 8-well cell culture slides (SLP, Lifesciences Co., Pocheon, Korea) in a final volume of 400 µL (2.5 × 10^4 Mφ/well). Plates were incubated overnight at 37 °C under humidified 5% CO2/95% air atmosphere to facilitate adherence. Stationary-phase promastigotes of Ld and Li were centrifuged (370× g, 10 min) without break in a Ficoll (Sigma, Saint Louis, MO, USA) gradient (0%, 10% in Medium 199 and 30% in sterile phosphate-buffered saline). Metacyclic promastigotes, located in the 10–30% Ficoll interphase, were recovered, washed and opsonized in 15% normal mouse serum in 1:1 solution of RPMI and HBSS medium (Gibco, Life Technologies, Paisley, UK), 0.15 mM CaCl2 and 1 mM MgCl2 at 37 °C, 5% CO2 atmosphere for 30 min. Purified metacyclic promastigotes were added to the Mφ cultures using a ratio 4:1 (promastigotes:Mφ) for Li and 10:1 for Ld. Plates were incubated at 33 °C overnight as above. Noninternalized promastigotes were eliminated by repeated washing with fresh medium. Treatments (10 µM) were added to the cultures and kept for 24 h. Slides were methanol-fixed and stained with May–Grünwald Giemsa (Merck) to determine the % of infection and the number of amastigotes/100 Mφ under microscope. Cultures untreated, treated with 0.05% DMSO and treated with 0.1 µM AmB were included as controls. Experiments were done in triplicate and the activity was expressed as % of inhibition compared to untreated cultures.

Li UCM9 promastigotes = assay: Multiplication of Li promastigotes in vitro (CellTiter-Glo, 24 h); assay type: cell-based, Leishmania infantum; settings: Leishmania infantum; for inhibition of growth at 120 µM: compared to untreated cultures, mean ± SD, read-out: Reduction (%) of multiplication, L infantum promastigotes; for Emax: exploratory screening, 0.94 µM up to 120 µM, read-out: Maximal effect (inhibition of growth of control cultures) on Li promastigotes
Description: as §1

[2] = system: BALB/c mouse peritoneal macrophages, Mφ; assay: Toxicity of flavonolignans for macrophages (CellTiter-Glo); assay type: cell-based; settings: Peritoneal macrophage, 24 h, 28.125 to 900 µM, approximate
Description: Toxicity of flavonolignans for mammalian cells was determined using mouse peritoneal Mφ. Cells obtained were counted and seeded onto 96-well cultures plates (Costar, Corning) at a final concentration of 5 × 10^4 Mφ/well (100 µL/well). Plates were incubated overnight at 37 °C and humidified 5% CO2/95% air to facilitate adherence. Cells were cultured as above for 24 h with different concentrations of the flavonolignans (28.125 µM, 56.25 µM, 112.5 µM, 225 µM, 450 µM and 900 µM). After incubation, cell viability was determined with CellTiter-Glo® as previously described. Untreated and 300 µM AmB-treated control wells were included. Experiments were done in triplicate and approximate IC50 determined.

IC50 (Ld promastigotes; approximate, dose-response curve): ~0.06 µM
Compound: C[C@@H]1[C@H](O)[C@@H](C)/C=C/C=C/C=C/C=C/C=C/C=C/C=C/[C@H](O[C@@H]2O[C@H](C)[C@@H](O)[C@H](N)[C@@H]2O)C[C@@H]2O[C@](O)(C[C@@H](O)C[C@@H](O)[C@H](O)CC[C@@H](O)C[C@@H](O)CC(=O)O[C@H]1C)C[C@H](O)[C@H]2C(=O)O [AmB, amphotericin B]
CI value of combination Dn + DhiS-A (Li promastigotes; ED10 (10% growth inhibition), constant ratio Dn:DhiS-A (AmB 0.01:15)): 1.49 (antagonism)
Dose Required of Dn in combination with DhiS-A (Li promastigotes; ED10): 0.023 µM
DRI of Dn in combination with DhiS-A (Li promastigotes; ED10): 2.85
CI value of combination Dn + DhiS-A (Li promastigotes; ED25 (25% growth inhibition), constant ratio Dn:DhiS-A (AmB 0.01:15)): 1.24 (moderate antagonism)
Dose Required of Dn in combination with DhiS-A (Li promastigotes; ED25): 0.030 µM
DRI of Dn in combination with DhiS-A (Li promastigotes; ED25): 2.74
CI value of combination Dn + DhiS-A (Li promastigotes; ED50 (50% growth inhibition), constant ratio Dn:DhiS-A (AmB 0.01:15; Sb^III 1:1; PMM 5:1)): 1.06 (additive effect)
Dose Required of Dn in combination with DhiS-A (Li promastigotes; ED50): 0.038 µM
DRI of Dn in combination with DhiS-A (Li promastigotes; ED50): 2.64
CI value of combination Dn + DhiS-A (Li promastigotes; ED75 (75% growth inhibition), constant ratio Dn:DhiS-A (AmB 0.01:15; Sb^III 1:1; PMM 5:1)): 0.92 (additive effect)
Dose Required of Dn in combination with DhiS-A (Li promastigotes; ED75): 0.048 µM
DRI of Dn in combination with DhiS-A (Li promastigotes; ED75): 2.54
CI value of combination Dn + DhiS-A (Li promastigotes; ED90 (90% growth inhibition), constant ratio Dn:DhiS-A (AmB 0.01:15; Sb^III 1:1; PMM 5:1)): 0.81 (moderate synergism)
Dose Required of Dn in combination with DhiS-A (Li promastigotes; ED90): 0.062 µM
DRI of Dn in combination with DhiS-A (Li promastigotes; ED90): 2.39
Dose Required of Dn in combination with DhiS-A (Li promastigotes; ED95): 0.074 µM
Type of interaction with DhiS-A (Li promastigotes; Li promastigotes, fixed ratios AmB 0.01:15, Sb^III 1:1, PMM 5:1 (Dn:DhiS-A)): moderate synergism
Reduction of the number of Mφ infected, Li ([1]; 0.1 µM): 50.0 ± 6.93%
Reduction of the number of amastigotes/100 Mφ, Li ([1]; 0.1 µM): 57.63 ± 11.47%
IC50 (Li UCM9 promastigotes; approximate, dose-response curve, 24 h): ~0.06 µM

Compound: COc1cc([C@H]2Oc3cc(-c4oc5cc(O)cc(O)c5c(=O)c4O)ccc3O[C@@H]2CO)ccc1O [Dehydrosilybin A, dehydrosilybin A]
IC50 [2]: ~60 µM
inhibition of growth at 120 µM (Ld promastigotes): -38.7 ± 5.41%
Reduction of Mφ infection, Li ([1]; 10 µM): 40.13 ± 12.6%
Reduction of intracellular amastigotes, Li ([1]; 10 µM): over 50%
inhibition of growth at 120 µM (Li UCM9 promastigotes; 24 h): 10.2 ± 6.97%

Compound: COc1cc(C2Oc3cc(-c4oc5cc(O)cc(O)c5c(=O)c4O)ccc3OC2CO)ccc1O (stereo not shown) [Dehydrosilybin AB, dehydrosilybin AB]
IC50 [2]: ~37 µM
inhibition of growth at 120 µM (Ld promastigotes): 9.01 ± 3.59%
inhibition of growth at 120 µM (Li UCM9 promastigotes; 24 h): 17.9 ± 4.33%
Emax (Li UCM9 promastigotes): < 50%

Compound: COc1cc([C@@H]2Oc3cc(-c4oc5cc(O)cc(O)c5c(=O)c4O)ccc3O[C@H]2CO)ccc1O [Dehydrosilybin B, dehydrosilybin B]
IC50 [2]: ~41.2 µM
inhibition of growth at 120 µM (Ld promastigotes): 38.1 ± 2.9%
inhibition of growth at 120 µM (Li UCM9 promastigotes; 24 h): 20.9 ± 11.6%

Compound: COc1cc([C@@H]2Oc3c(O)cc(-c4oc5cc(O)cc(O)c5c(=O)c4O)cc3[C@H]2CO)ccc1O [Dehydrosilychristin A, dehydrosilychristin A]
IC50 [2]: ~40 µM
inhibition of growth at 120 µM (Ld promastigotes): 46.7 ± 1.24%
inhibition of growth at 120 µM (Li UCM9 promastigotes; 24 h): 30.6 ± 3.33%
Emax (Li UCM9 promastigotes): < 50%

Compound: COc1cc(C2C3C=C(c4oc5cc(O)cc(O)c5c(=O)c4O)C4C2COC4(O)C3=O)ccc1O (stereo not shown) [Dehydrosilydianin, dehydrosilydianin]
inhibition of growth at 120 µM (Ld promastigotes): 29.8 ± 2.17%
inhibition of growth at 120 µM (Li UCM9 promastigotes; 24 h): 42.2 ± 5.42%
Emax (Li UCM9 promastigotes): < 50%
